# Patent publication US12649723B2, “Carbonohydrazonoyl dicyanide compounds comprising 2 or more aryl or heteroaryl connected via linker and use thereof” (KOREA INSTITUTE OF SCIENCE AND TECHNOLOGY, priority 2020, dated 2026)
# Legend:
# Tau-BiFC cells = experiment: Cell viability (cytotoxicity) in tau-BiFC cells, count of stained nuclei; type: cell-based; details: compound 10 μM; Forskolin-only group = 100% cell viability
# Experimental: (§1) In order to select novel tau protein aggregation-inhibiting substances, tau-BiFC cell model, in which formation of tau oligomers in living cells is easily observed, was used. Tau-BiFC cells were aliquoted into a 384-well plate. On the next day, the cells were treated with each of the compounds prepared according to Examples 1 to 175 at concentrations of 1 μM, 3 μM, and 10 μM, together with Forskolin (at a treatment concentration of 30 μM), which is a compound inducing tau protein aggregation by activating tau […] PKA. After 48 hours, nuclei in the cells were stained using Hoechst (at a treatment concentration of 2 μg/mL), and BiFC fluorescence intensity was automatically measured using Operetta (PerkinElmer) to count stained nuclei in each well out of the entire well plate. The group treated only with Forskolin, which induces tau protein aggregation, was set to a reference point of a 100% tau protein-aggregated state, and the effects of the compounds were confirmed using the equation “BiFC fluorescence intensity due to compound synthesized according to embodiment of present invention/(fluorescence intensity of control group treated only with Forskolin inducing tau protein aggregation−fluorescence intensity of untreated control group)×100”. Furthermore, the degree of cytotoxicity induced by the newly synthesized compound was also measured based on the 100% cell viability of the group treated only with Forskolin as a reference, and the cytotoxicity value of each compound was calculated using the equation “(number of stained nuclei in group treated with compound/number of stained nuclei in group treated with Forskolin)×100”. Based on the treatment results, substances inhibiting intracellular tau protein aggregation were selected from a series of candidate groups showing a tau protein aggregation inhibition rate of 70% or more and cell viability of 100% at a compound treatment concentration of 10 μM or more.
# (§2) In order to evaluate dose-dependent tau protein aggregation inhibition effects of the compounds selected according to Experimental Example 1 on tau protein aggregation, tau-BiFC cells were treated with the selected compounds at concentrations of 0.03 μM, […], 0.3 μM, 1 μM, 3 μM, 10 μM, and 30 μM, respectively, together with Forskolin (at a treatment concentration of 30 μM), which is a tau protein aggregation inducing substance. After 48 hours, tau protein aggregation reaction and degrees of cytotoxicity were analyzed by observing images of the cells. IC50 and toxicity of the compounds were analyzed by way of nonlinear regression analysis of prism software (Graph Pad).
# tau protein = target: T1, tau protein (Homo sapiens, UniProt P10636); experiment: Tau-BiFC cell model: inhibition of tau protein aggregation; type: cell-based; details: for remaining activity at 10 µM: 48 h, compound 10 μM, BiFC fluorescence, Forskolin-only group = 100% tau protein-aggregated state, read-out: Response (% @10 μM); for IC50: Tau BiFC in cells, with Forskolin 30 μM, 48 hours
# T1 construct: fused on or other part: Split fluorescent-protein halves for BiFC are fused to tau; In the published tau-BiFC line these are Venus VN173 and VC155
# T1 sequence (P10636 2-441 isoform P10636-8 limits assumed): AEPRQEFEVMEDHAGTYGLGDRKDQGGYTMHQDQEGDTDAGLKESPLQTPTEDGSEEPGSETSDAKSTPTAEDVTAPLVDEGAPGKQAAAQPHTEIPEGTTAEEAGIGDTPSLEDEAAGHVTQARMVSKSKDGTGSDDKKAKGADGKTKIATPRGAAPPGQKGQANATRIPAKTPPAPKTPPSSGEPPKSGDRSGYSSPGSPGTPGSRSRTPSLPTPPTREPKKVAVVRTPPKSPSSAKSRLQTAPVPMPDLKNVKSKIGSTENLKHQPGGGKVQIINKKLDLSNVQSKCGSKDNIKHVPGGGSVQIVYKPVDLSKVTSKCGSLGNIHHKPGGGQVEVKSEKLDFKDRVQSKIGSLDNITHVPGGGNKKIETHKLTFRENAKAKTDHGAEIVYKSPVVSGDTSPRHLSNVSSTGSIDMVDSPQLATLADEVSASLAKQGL
# Experimental: as §1, §2
Compound,Cell viability (% @10 μM) (Tau-BiFC cells) [%],remaining activity at 10 µM (tau protein) [%],IC50 (tau protein) [nM]
"N#CC(C#N)=NNc1ccc(NS(=O)(=O)c2ccccc2)nc1 [Compound 58, (6-(phenylsulfonamido)pyridin-3-yl)carbonohydrazonoyl dicyanide]",113.5,51.4,
"COc1ccc(S(=O)(=O)Nc2ccc(NN=C(C#N)C#N)cn2)cc1 [Compound 59, (6-(4-methoxyphenylsulfonamido)pyridin-3-yl)carbonohydrazonoyl dicyanide]",128.2,74.3,
"N#CC(C#N)=NNc1ccc(NS(=O)(=O)c2cccnc2)nc1 [Compound 60, (6-(pyridin-3-sulfonamido)pyridin-3-yl)carbonohydrazonoyl dicyanide]",116.9,90.2,
"Cn1cc(S(=O)(=O)Nc2ccc(NN=C(C#N)C#N)cn2)cn1 [Compound 61, (6-(1-methyl-1H-pyrazole-4-sulfonamido)pyridin-3-yl)carbonohydrazonoyl dicyanide]",112.7,109,
"N#CC(C#N)=NNc1ccc(NS(=O)(=O)c2cccs2)nc1 [Compound 62, (6-(thiophene-2-sulfonamido)pyridin-3-yl)carbonohydrazonoyl dicyanide]",116.5,87.3,
"Cc1ccc(S(=O)(=O)Nc2ccc(NN=C(C#N)C#N)cn2)cc1 [Compound 63, (6-(4-methylphenylsulfonamido)pyridin-3-yl)carbonohydrazonoyl dicyanide]",136.7,11.5,
"N#CC(C#N)=NNc1ccc(NS(=O)(=O)c2ccc(F)cc2)nc1 [Compound 64, (6-(4-fluorophenylsulfonamido)pyridin-3-yl)carbonohydrazonoyl dicyanide]",114.2,56,
"Cc1ccc(NS(=O)(=O)c2ccc(NN=C(C#N)C#N)cc2)cn1 [Compound 65, (4-(N-(6-methylpyridin-3-yl)sulfamoyl)phenyl)carbonohydrazonoyl dicyanide]",111.4,72.6,
"COc1ccc(NS(=O)(=O)c2ccc(NN=C(C#N)C#N)cc2)cc1 [Compound 66, (4-(N-(4-methoxyphenyl)sulfamoyl)phenyl)carbonohydrazonoyl dicyanide]",123.9,61.2,
"Cc1cnc(NS(=O)(=O)c2ccc(NN=C(C#N)C#N)cc2)cn1 [Compound 67, (4-(N-(5-methylpyrazin-2-yl)sulfamoyl)phenyl)carbonohydrazonoyl dicyanide]",108.4,68.2,
"N#CC(C#N)=NNc1ccc(Oc2ccccc2)cn1 [Compound 70, (5-phenoxypyridin-2-yl)carbonohydrazonoyl dicyanide]",94.5,0,310
"N#CC(C#N)=NNc1ccc(Oc2ccccc2)c(F)c1 [Compound 71, (3-fluoro-4-phenoxyphenyl)carbonohydrazonoyl dicyanide]",46,0,
"N#CC(C#N)=NNc1ccc(Oc2cccnc2)c(F)c1 [Compound 72, (3-fluoro-4-(pyridin-3-yloxy)phenyl)carbonohydrazonoyl dicyanide]",129.5,0,1990
"N#CC(C#N)=NNc1ccc(Oc2ccccc2)c(C(F)(F)F)c1 [Compound 73, (4-phenoxy-3-(trifluoromethyl)phenyl)carbonohydrazonoyl dicyanide]",49.6,0,
"Cc1cc(NN=C(C#N)C#N)ccc1Oc1cccnc1 [Compound 74, (3-methyl-4-(pyridin-3-yloxy)phenyl)carbonohydrazonoyl dicyanide]",92.7,0,440
"CN(N=C(C#N)C#N)c1ccc(Oc2ccccc2)cn1 [Compound 75, methyl(5-phenoxypyridin-2-yl)carbonohydrazonoyl dicyanide]",131.4,102,
